Consider three compounds from patent publication US20050187240A1, “Aaptamine and isoaaptamine and structural modifications thereof” (The Arizona Board of Regents, Acting for and on behalf of …, priority 2004, published 2005).

One series deals with CNS SF-268. The series is described as follows: Cancer cell growth inhibition, CNS SF-268. The settings on record: Homo sapiens. It counts as cell-based, human. The procedure: (§1) Biology The cancer cell growth inhibitory properties were examined using the murine P388 lymphocytic leukemia cell line and a selection of human cancer cell lines.
(§2) All of the synthetic products were evaluated against a minipanel of human cancer cell lines, the murine P388 lymphocytic leukemia cell line and a selection of microorganisms.

In the next series the test system is Cryptococcus neoformans. The series is described as follows: Broth microdilution susceptibility assay, Cryptococcus neoformans. It counts as cell-based.
Series [1] relates to herpes simplex virus type 1 (HSV-1). The settings on record: cited from earlier work.
The next series concerns breast MCF-7. The series is described as follows: Cancer cell growth inhibition, breast MCF-7. In kind it is cell-based, human. The settings on record: Homo sapiens. The procedure:
as §1, §2

A further series deals with lung NCI-H460. The series is described as follows: Cancer cell growth inhibition, lung NCI-H460. The settings on record: Homo sapiens. It counts as cell-based, human. The method in brief: (§3)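 Growth inhibition in murine P388 leukemia and human cancer cell line panels (Arizona State University minipanel and NCI 60-cell screen).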
The target in series [2] is T1, PKC alpha (Homo sapiens, UniProt P17252). Description: Inhibition of PKC catalytic activity (peptide substrate phosphorylation). The settings on record: for inhibition at 30 µM: read-out: percent inhibition of PKC catalytic activity. In kind it is biochemical. From the text:
We further evaluated the ability of the derivatives to inhibit PKC catalytic activity. […] Inhibition by 10c was 19.5±7.6% and inhibition by 4, 5, and 9a, b, c was 6% or less (all values are mean±SEM, three experiments). […] In both cases, the inhibition curves were steeper than predicted for a competitive inhibitor, consistent with a complicated mechanism of action (Hill coefficients for 10a and 10b of 1.5±0.1 and 2.0±0.5, respectively).

For the next series, the system named is Streptococcus pneumoniae. Description: Broth microdilution susceptibility assay, Streptococcus pneumoniae. It counts as cell-based.
A further series has as its system Escherichia coli. The series is described as follows: Broth microdilution susceptibility assay, Escherichia coli. In kind it is cell-based.
Another series concerns Micrococcus luteus. Description: Broth microdilution susceptibility assay, Micrococcus luteus. It counts as cell-based. In general terms: In broth dilution the organism is exposed to a series of concentrations in liquid medium.
A further series deals with Staphylococcus aureus. The series is described as follows: Broth microdilution susceptibility assay, Staphylococcus aureus. In kind it is cell-based.
In the next series the test system is prostrate DU-145. Description: Cancer cell growth inhibition, prostate DU-145. It counts as cell-based, human. The settings on record: Homo sapiens. How it is done: as §1, §2
For series [3], the system named is Stenotrophomonas maltophilia. The series is described as follows: Broth microdilution susceptibility assay, Stenotrophomonas maltophilia. It counts as cell-based. The settings on record: for MIC: read-out: Range of minimum inhibitory concentration.
Series [4] has as its system murine P388 lymphocytic leukemia cell line. Description: Cancer cell growth inhibition, murine P388 lymphocytic leukemia cell line. It counts as cell-based. The settings on record: Mus musculus. The essentials: as §3
For a further series, the system named is Vero cells. The settings on record: cited from earlier work.
For another series, the system named is Neisseria gonorrhoeae. The series is described as follows: Broth microdilution susceptibility assay, Neisseria gonorrhoeae. In kind it is cell-based.
For the next series, the system named is colon KM 20L2. Description: Cancer cell growth inhibition, colon KM 20L2. It counts as cell-based, human. The settings on record: Homo sapiens. The essentials: as §3
A further series deals with Enterobacter cloacae. Description: Broth microdilution susceptibility assay, Enterobacter cloacae. In kind it is cell-based.
The next series relates to pancreas BXPC-3. The series is described as follows: Cancer cell growth inhibition, pancreas BXPC-3. In kind it is cell-based, human. The settings on record: Homo sapiens. The procedure:
as §1, §2

The subject of a further series is Enterococcus faecalis. Description: Broth microdilution susceptibility assay, Enterococcus faecalis. In kind it is cell-based.
A further series has as its system Candida albicans. The series is described as follows: Broth microdilution susceptibility assay, Candida albicans. In kind it is cell-based.
The subject of series [5] is Mycobacterium tuberculosis H37Rv. The series is described as follows: Microplate Alamar Blue Assay, Mycobacterium tuberculosis. It counts as cell-based. The settings on record: 6.25 μg/ml.
Series [6] relates to THP-1 human monocytic leukemia cells. The series is described as follows: Flow cytometry cell cycle analysis of THP-1 cells. In kind it is cell-based. The settings on record: THP-1 cells pretreated for 24 hours with 0.25 μg/ml. (A flow cytometer gives signals particle by particle.)
The target in series [7] is T1, PKC alpha. The series is described as follows: Inhibition of [3H]phorbol 12,13-dibutyrate binding to PKC alpha. The settings on record: read-out: inhibition of [3H]phorbol 12,13-dibutyrate binding to PKC alpha. The method in brief:
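Compounds tested at a single 30 μM concentration for displacement of [3H]phorbol 12,13-dibutyrate binding to PKC alpha, reported as percent inhibition. Triplicate measurements in one or three independent experiments depending on compound.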

In series [8] the test system is genes whose products are involved in DNA synthesis. The series is described as follows: cDNA microarray assay with THP-1 cells. It counts as cell-based, human. The settings on record: THP-1 cells treated for 23 hours with 0.25 μg/ml.
A short description of series [9]: Antimicrobial activity in the presence of human serum. In kind it is cell-based. From the text:
The antimicrobial activity of phenols 15 and 18 in the presence of human serum was also investigated.

Another series has as its system tubulin. Description: Tubulin polymerization (assembly) inhibition. In kind it is biochemical. The settings on record: b62 series; read-out: IC50 for inhibition of extent of tubulin assembly. How it is done: Only minimal inhibitory activity was observed. While compounds 15 and 8 did inhibit the rate of polymerization by over 50% at 40 μM (the highest concentration examined), an IC50 value for inhibition of assembly extent was obtained only for compound 18. […] Thus, it seems unlikely that the cytotoxic mechanism for these aaptamine analogs derives from an interaction with tubulin.
A number of the aaptamine derivatives whose synthesis is described here were examined for potential effects on tubulin assembly. These were compounds 2, 4, 5, 9a-c, and 10a-d. […] For comparison, in experiments performed contemporaneously, the potent colchicine site drug combretastatin A-4 yielded an IC50 value of about 2 μM.

The mark [10] stands for this setting: Table 5, CNS SF-268, read-out: Cancer Cell Line Results ED50.
Where [11] appears, read: Table 4, read-out: Range of minimum inhibitory concentration.
Setting [12] is: MCF7, Table 5, breast MCF-7, read-out: Cancer Cell Line Results ED50.
Where [13] appears, read: Table 5, lung NCI-H460, read-out: Cancer Cell Line Results ED50.
Where [14] appears, read: DU-145, Table 5, prostate DRU-145, read-out: Cancer Cell Line Results ED50.
Where [15] appears, read: Table 5, leukemia P388, read-out: Cancer Cell Line Results ED50.
Where [16] appears, read: Table 5, colon KM 20L2, read-out: Cancer Cell Line Results ED50.
[17] abbreviates: Table 5, pancreas BXPC-3, read-out: Cancer Cell Line Results ED50.
Where [18] appears, read: read-out: Range of minimum inhibitory concentration.

Counter-ions that a name gives are not always drawn. Like-named read-outs stand apart in the source and are kept apart here. Where only a bound is given, the exact number is not on record here.

The inhibition is the drop in the measured response relative to a control, in per cent. As for `COc1cc2c3c(ccnc3c1OC)N(C)C=C2` [Compound 4, 4-Methylaaptamine], the IC50 was over 10 µg/mL with CNS SF-268 (Table 3, CNS SF-268, read-out: Cancer cell growth inhibitory ED50); over 10 µg/mL in the series on CNS SF-268 (setting [10]); over 10 µg/mL with breast MCF-7 (MCF7, Table 3, breast MCF-7, read-out: Cancer cell growth inhibitory ED50); over 10 µg/mL in the series on breast MCF-7 (setting [12]); over 10 µg/mL in the series on lung NCI-H460 (Table 3, lung NCI-H460, read-out: Cancer cell growth inhibitory ED50); over 10 µg/mL with lung NCI-H460 (setting [13]). Also, the IC50 was over 10 µg/mL in the series on prostrate DU-145 (setting [14]); over 10 µg/mL in the series on prostrate DU-145 (Table 3, prostrate DU-145, read-out: Cancer cell growth inhibitory ED50); over 10 µg/mL in [4] (P388, Table 3, leukemia P-388, read-out: Cancer cell growth inhibitory ED50); over 10 µg/mL in series [4] (setting [15]); over 10 µg/mL in the series on colon KM 20L2 (Table 3, colon KM 20L2, read-out: Cancer cell growth inhibitory ED50); over 10 µg/mL with colon KM 20L2 (setting [16]). Besides, the IC50 was over 10 µg/mL in the series with pancreas BXPC-3 (Table 3, pancreas BXPC-3, read-out: Cancer cell growth inhibitory ED50) and over 10 µg/mL in the series with pancreas BXPC-3 (setting [17]). The MIC was over 64 µg/mL in the series with Cryptococcus neoformans (setting [11]); over 64 µg/mL with Streptococcus pneumoniae (setting [11]); over 64 µg/mL in the series with Escherichia coli (setting [11]); over 64 µg/mL with Micrococcus luteus (setting [11]); over 64 µg/mL in the series on Staphylococcus aureus (setting [11]); over 64 µg/mL in [3] (Table 4, Stenotrophomonas maltophil). Besides, the MIC in the series with Neisseria gonorrhoeae (setting [11]), in the series with Enterobacter cloacae (setting [11]), in the series on Enterococcus faecalis (setting [11]) and in the series with Candida albicans (setting [11]) was over 64 µg/mL throughout. For the same compound, in series [1], the “antiviral activity against HSV-1” value is reported as “potent antiviral activity”. Further, on PKC alpha [2] (30 μM compound, 1 μM phorbol 12-myristate 13-acetate, 100 μg/ml phospholipid, mean±SEM, three experiments), the inhibition at 30 µM was at most 6%. In the series with Vero cells, the “toxicity to Vero cells” value is “low toxicity”.

Usually melting point stands for the temperature, or range, at which the solid turns liquid. `COc1cc2c3c(cc[n+](Cc4ccccc4)c3c1OC)N(Cc1ccccc1)C=C2.[Cl-]` [Compound 10a, 1,4-Bis-(benzyl)-8,9-dimethoxy-4H-benzo[de][1,6]naphthyridin-1-ium chloride]: the melting point is 175 °C (dec.). For the same compound, in the series with CNS SF-268 (setting [10]), the IC50 worked out at 0.064 µg/mL. This compound had an inhibition at 6.25 µg/mL in series [5] of 98%. Besides, the “Range of minimum inhibitory concentration” value in the series on Cryptococcus neoformans (Table 6) is given as “* (no inhibition at 64 μg/mL)”. The “cell cycle effect (propidium iodide flow cytometry)” value in series [6] is “accumulation of cells in the GI phase”. Further, the IC50 with breast MCF-7 (setting [12]) amounted to 0.27 µg/mL. For the same compound, the IC50 in the series with lung NCI-H460 (setting [13]) turned out to be 0.26 µg/mL. On PKC alpha [2], the “Hill coefficient of PKC inhibition curve” value is recorded as 1.5±0.1, the IC50 was 20.8 ± 2.5 µM and the inhibition at 30 µM turned out to be 71.1 ± 4.5%. Besides, in the series on Streptococcus pneumoniae (Table 6), the “Range of minimum inhibitory concentration” value was 32 µg/mL. Besides, the “Range of minimum inhibitory concentration” value in the series with Escherichia coli (Table 6) was determined as 8 µg/mL. In addition, the “Range of minimum inhibitory concentration” value in the series on Micrococcus luteus (Table 6) lay in the range of 0.5 to 2 µg/mL. Also, the “Range of minimum inhibitory concentration” value in the series with Staphylococcus aureus (Table 6) is given as “* (no inhibition at 64 μg/mL)”. The inhibition at 30 µM on PKC alpha [7] is 11.8%. Also, the IC50 in the series on prostrate DU-145 (setting [14]) is 0.036 µg/mL. Also, in [3] (Table 6), the “Range of minimum inhibitory concentration” value is recorded as “* (no inhibition at 64 μg/mL)”. Also, the IC50 in series [4] (setting [15]) was found to be 0.234 µg/mL. Besides, the “down-regulation of several genes involved in DNA synthesis” value in [8] was 5- to 7 fold. Moreover, in the series on Neisseria gonorrhoeae (Table 6), the “Range of minimum inhibitory concentration” value is 0.25 µg/mL. For the same compound, the IC50 with colon KM 20L2 (setting [16]) turned out to be 0.055 µg/mL. Besides, in the series on Enterobacter cloacae (Table 6), the “Range of minimum inhibitory concentration” value is on record as “* (no inhibition at 64 μg/mL)”. The IC50 in the series on pancreas BXPC-3 (setting [17]) was 0.061 µg/mL. The “Range of minimum inhibitory concentration” value with Enterococcus faecalis (Table 6) stood at 32 µg/mL. Further, the “Range of minimum inhibitory concentration” value in the series on Candida albicans (Table 6) is “* (no inhibition at 64 μg/mL)”.

`COc1cc2ccnc3c2c(c1O)NC=C3` [Compound 18, 9-Demethylaaptamine hydrobromide]: the IC50 in the series with CNS SF-268 (SF-268, read-out: Cancer cell growth inhibitory ED50) came out at 1.4 µg/mL; in the series on breast MCF-7 (MCF7, read-out: Cancer cell growth inhibitory ED50), 0.66 µg/mL; in the series on lung NCI-H460 (NCI-H460, read-out: Cancer cell growth inhibitory ED50), 2 µg/mL; in the series with prostrate DU-145 (DU-145, read-out: Cancer cell growth inhibitory ED50), 1.8 µg/mL; in series [4] (P388, read-out: Cancer cell growth inhibitory ED50) it was 0.22 µg/mL; in the series on colon KM 20L2 (KM-20L2, read-out: Cancer cell growth inhibitory ED50), 1.7 µg/mL. Further, the IC50 worked out at 37 ± 4 µM in the series on tubulin and 1.6 µg/mL with pancreas BXPC-3 (BXPC-3, read-out: Cancer cell growth inhibitory ED50). The “minimum inhibitory concentrations in the presence of human serum versus absence of serum” value in [9] is “identical or one 2-fold dilution lower”. Further, the MIC with Cryptococcus neoformans (setting [18]) is 32 µg/mL; in the series with Streptococcus pneumoniae (setting [18]), 2 to 4 µg/mL; in the series with Escherichia coli (setting [18]), 32 to 64 µg/mL; in the series with Micrococcus luteus (setting [18]), 8 µg/mL; in the series with Staphylococcus aureus (setting [18]) it was 16 µg/mL; in series [3] it was over 64 µg/mL. Besides, the MIC is over 0.5 µg/mL with Neisseria gonorrhoeae (setting [18]), over 64 µg/mL in the series with Enterobacter cloacae (setting [18]), 8 to 32 µg/mL with Enterococcus faecalis (setting [18]) and 64 µg/mL with Candida albicans (setting [18]).
